Measurements published in patent US20240148835A1, “TREATING DISORDERS ASSOCIATED WITH DYRK1A DYSFUNCTION” (UNIVERSITY OF FLORIDA RESEARCH FOUNDATION, INCORPORATED, priority 2021, published 2024).
Entries after “also recorded” stand apart in the source; their conditions may differ.

Tested on: Dyrk1a cHets
Test: Chronic (1-3)IGF-1 treatment from P14: behavioral battery
Format: in vivo, mouse
Source text: To determine whether chronic (1-3)IGF-1 administration ameliorates ASD-relevant behaviors, we conducted a behavioral battery to assay sociability and repetitive behaviors as well as locomotion, anxiety-like behavior, acoustic startle, and sensorimotor gating. […] Taken together, (1-3)IGF-1 treatment ameliorates morphological, neuronal, and behavioral deficits caused by cortical Dyrk1a mutations.
(1-3)IGF-1 was acquired from VWR/Bachem (catalog #H-2468.1000) and dissolved in saline with 0.01% BSA fresh every day. Intraperitoneal injections of 10 mg kg′ (1-3)IGF-1 or vehicle were delivered daily at 8 a.m. starting on P14 and ending on P85. […] The S6K1 inhibitor PF-4708671 was acquired from Medkoo Biosciences (#406432) dissolved in 10% DMSO, 10% tween 80 and 80% water. (1-3)IGF-1 (10 mg kg′) and PF-4708671 (50 mg kg^−1) or vehicle were injected subcutaneously into pups from P0 to P7. Rapamycin was acquired from LC laboratories (R-5000) and dissolved in 4% ethanol, 5% tween-80, and 5% PEG400 in PBS. (1-3)IGF-1 (10 mg kg′) and Rapamycin (1 mg kg′) or vehicle were injected subcutaneously into pups from P0 to P7. SB216763 was acquired from TOCRIS (#1616) and dissolved in 5% DMSO and 0.9% saline in dH20. SB216763 (0.5 mg kg′) was injected subcutaneously into pups from P0 to P7.
3 chamber social approach: Briefly, after at least 2 weeks housing under reversed light cycle, each mouse was habituated in the three-chamber box for 5 minutes before a stimulus mouse was placed into a tube in the “social” chamber. The stimulus mice used were young adult male mice. The time spent in each chamber (“mouse+tube”, “empty tube”, “center”) was hand-scored for sniffing time using Boris.
Marble burying: Male mice were placed individually in a cage with 5 cm of ¼″ corncob bedding and 20 black marbles (14.3 mm in diameter) arranged in a 4×5 matrix and left undisturbed for 30 min. The number of marbles that were at least two-thirds buried at the end of the trial were counted. […]

[1] = 3-chamber social approach, cHets

Substance: (1-3)IGF-1: a tripeptide cleaved from the N-terminus of IGF-1; acquired from VWR/Bachem, CAS No. 32302-76-4 (GPE; Insulin-like growth factor 1; UniProt P05019 49-51, looked up, fragment)
- preference index [1]: restored
- social interaction time (hand-scored) [1]: increased
- social deficit of cHets (time interacting with stimulus mouse, preference index) (3-chamber social approach, cHets, daily from P14): restored this social deficit in cHets
- sociability of controls (3-chamber social approach, controls): did not impact controls
- preference for stimulus mouse vs inanimate object within group, 3-chamber social approach (all genotype X treatment groups): significant preference for interaction with a stimulus mouse; also recorded: significant preference for social interaction
- number of marbles buried by cHets (marble burying, cHets): no effect; also recorded: subtle modification of the phenotype
- qualitative interaction with the marbles (marble burying, cHets): qualitatively interaction with the marbles increased in cHets
